Experimental data taken from patent US11351164B2, “Inhibitors of indoleamine 2,3-dioxygenase and methods of their use” (BRISTOL-MYERS SQUIBB COMPANY, priority 2016, dated 2022).

biological target: T1, human IDO1 (Homo sapiens, UniProt P14902); experiment: IDO inhibition assay in HEK293 cells stably expressing human IDO1 (kynurenine, Ehrlich reagent, absorbance 490 nm); assay type: cell-based; conditions: 20 hours incubation, read-out: IDO1 HEK Human IC50
T1 construct: expressed in transfected cells
T1 sequence (P14902 whole entry): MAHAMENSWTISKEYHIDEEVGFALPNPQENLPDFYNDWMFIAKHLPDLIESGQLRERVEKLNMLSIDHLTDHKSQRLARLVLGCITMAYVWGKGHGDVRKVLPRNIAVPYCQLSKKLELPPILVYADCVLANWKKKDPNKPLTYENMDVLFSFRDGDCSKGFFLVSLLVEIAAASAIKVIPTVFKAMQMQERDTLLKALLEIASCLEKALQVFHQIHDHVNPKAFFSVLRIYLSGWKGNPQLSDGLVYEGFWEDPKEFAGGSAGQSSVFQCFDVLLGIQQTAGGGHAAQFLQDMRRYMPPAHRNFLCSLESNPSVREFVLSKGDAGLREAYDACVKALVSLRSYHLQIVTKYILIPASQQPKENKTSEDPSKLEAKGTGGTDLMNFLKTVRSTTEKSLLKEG
Protocol: HEK293 cells were transfected with a pCDNA-based mammalian expression vector harboring human IDO1 cDNA (NM 002164.2) by electroporation. They were cultured in medium (DMEM with 10% FBS) containing 1 mg/ml G418 for two weeks. Clones of HEK293 cells that stably expressed human IDO1 protein were selected and expanded for IDO inhibition assay. The human IDO1/HEK293 cells were seeded at 10,000 cells per 50 μL per well with RPMI/phenol red free media contains 10% FBS in a 384-well black wall clear bottom tissue culture plate (Matrix Technologies LLC) 100 nL of certain concentration of compound was then added to each well using ECHO liquid handling systems. The cells were incubated for 20 hours in 37° C. incubator with 5% CO2. The compound treatments were stopped by adding trichloroacetic acid (Sigma-Aldrich) to a final concentration at 0.2%. The cell plate was further incubated at 50° C. for 30 minute. The equal volume supernatant ([…]) and 0.2% (w/v) Ehrlich reagent (4-dimethylaminobenzaldehyde, Sigma-Aldrich) in glacial acetic acid were mixed in a new clear bottom 384-well plate. This plate was then incubated at room temperature for 30 minute. The absorbance at 490 nm was measured on Envision plate reader. Compound IC50 values were calculated using the counts of 500 nM of a reference standard treatment as one hundred percent inhibition, and counts of no compound but DMSO treatment as zero percent inhibition.

| IC50 [µM] | Structure (SMILES) |
| --- | --- |
| 0.0036 | CCC(Nc1nnc(-c2ccc(OC)cc2)o1)[C@H]1CC[C@@H](c2ccnc3ccc(F)cc32)CC1 (mixture of isomers) [Example 48, N-(1-((1s,4s)-4-(6-Fluoroquinolin-4-yl)cyclohexyl)propyl)-5-(4-methoxyphenyl)-1,3,4-oxadiazol-2-amine] |
| 0.0009 | CCC(Nc1nnc(-c2ccc(OC)cc2)o1)[C@H]1CC[C@@H](c2ccnc3ccc(F)cc32)CC1 (single isomer, unassigned) [Example 49-1, N-(1-((1s,4s)-4-(6-Fluoroquinolin-4-yl)cyclohexyl)propyl)-5-(4-methoxyphenyl)-1,3,4-oxadiazol-2-amine] |
| 0.177 | CCC(Nc1nnc(-c2ccc(OC)cc2)o1)[C@H]1CC[C@@H](c2ccnc3ccc(F)cc32)CC1 (single isomer, unassigned) [Example 49-2, N-(1-((1s,4s)-4-(6-Fluoroquinolin-4-yl)cyclohexyl)propyl)-5-(4-methoxyphenyl)-1,3,4-oxadiazol-2-amine] |
| 2 | CCC(c1nnc(Nc2ccc(OC)cc2)[nH]1)C1CCC(c2ccnc3ccc(F)cc23)CC1 (single isomer, unassigned) [Example 55, 5-(1-(4-(6-Fluoroquinolin-4-yl)cyclohexyl)propyl)-N-(4-methoxyphenyl)-4H-1,2,4-triazol-3-amine] |
| 0.0184 | CCC(c1nnc(Nc2ccc(OC)cc2)[nH]1)C1CCC(c2ccnc3ccc(F)cc23)CC1 (single isomer, unassigned) [Example 56, 5-(1-(4-(6-Fluoroquinolin-4-yl)cyclohexyl)propyl)-N-(4-methoxyphenyl)-4H-1,2,4-triazol-3-amine] |
| 0.33 | CCOCC(Nc1nnc(-c2ccc(OC)cc2)o1)[C@H]1CC[C@@H](c2ccnc(F)c2C)CC1 (single isomer, unassigned) [Example 57-2, N-(2-Ethoxy-1-((1s,4s)-4-(2-fluoro-3-methylpyridin-4-yl)cyclohexyl)ethyl)-5-(4-methoxyphenyl)-1,3,4-oxadiazol-2-amine] |
| 0.811 | CCC(Nc1nnc(-c2ccc(F)cc2)o1)C1CCC(c2ccnc3ccc(C(F)(F)F)cc23)CC1 (single isomer, unassigned) [Example 61, 5-(4-fluorophenyl)-N-(1-((1s,4s)-4-(6-(trifluoromethyl)quinolin-4-yl)cyclohexyl)propyl)-1,3,4-oxadiazol-2-amine] |
| 0.141 | CCC(Nc1nnc(-c2ccc(OC)cc2)o1)[C@H]1CC[C@@H](c2ccnc(F)c2C)CC1 (single isomer, unassigned) [Example 63-2, N-(1-((1s,4s)-4-(2-Fluoro-3-methylpyridin-4-yl)cyclohexyl)propyl)-5-(4-methoxyphenyl)-1,3,4-oxadiazol-2-amine] |
| 0.167 | C[C@@H](c1nnc(-c2ccc(Cl)cc2)o1)[C@H]1CC[C@@H](c2ccnc3ccc(F)cc32)CC1 [Example 4, 2-(4-Chlorophenyl)-5-((R)-1-((1s,4s)-4-(6-fluoroquinolin-4-yl)cyclohexyl)ethyl)-1,3,4-oxadiazole] |
| 0.037 | C[C@@H](c1nnc(-c2ccc(C#N)cc2)s1)[C@H]1CC[C@@H](c2ccnc3ccc(F)cc32)CC1 [Example 6, 4-(5-((R)-1-((1s,4S)-4-(6-Fluoroquinolin-4-yl)cyclohexyl)ethyl)-1,3,4-thiadiazol-2-yl)benzonitrile] |
| 0.543 | C[C@@H](c1nnc(Nc2ccc(F)cc2)s1)[C@H]1CC[C@@H](c2ccnc3ccc(F)cc32)CC1 [Example 7, N-(4-Fluorophenyl)-5-((R)-1-((1s,4S)-4-(6-fluoroquinolin-4-yl)cyclohexyl)ethyl)-1,3,4-thiadiazol-2-amine] |
| 0.192 | COc1ccc(-c2nnc([C@H](C)[C@H]3CC[C@@H](c4ccnc5ccc(F)cc54)CC3)[nH]2)cc1 [Example 9] |
| 0.747 | Cc1ccc(-c2nnc([C@H](C)[C@H]3CC[C@@H](c4ccnc5ccc(F)cc54)CC3)[nH]2)cc1F [Example 10, 6-fluoro-4-((1S,4s)-4-((R)-1-(5-(3-fluoro-4-methylphenyl)-4H-1,2,4-triazol-3-yl)ethyl)cyclohexyl)quinoline] |
| 0.124 | Cc1ccc(-c2nnc([C@H](C)[C@H]3CC[C@@H](c4ccnc5ccc(F)cc54)CC3)[nH]2)cc1 [Example 15, 6-fluoro-4-((1S,4s)-4-((R)-1-(5-p-tolyl-4H-1,2,4-triazol-3-yl)ethyl)cyclohexyl)quinoline] |
| 2 | Cc1ccc(-c2nnc([C@H](C)[C@H]3CC[C@@H](c4ccnc5ccc(F)cc54)CC3)o2)cc1F [Example 16, 2-(3-fluoro-4-methylphenyl)-5-((R)-1-((1s,4S)-4-(6-fluoroquinolin-4-yl)cyclohexyl)ethyl)-1,3,4-oxadiazole] |
| 0.239 | C[C@@H](c1nnc(-c2ccc(F)c(Cl)c2)o1)[C@H]1CC[C@@H](c2ccnc3ccc(F)cc32)CC1 [Example 17, 2-(3-chloro-4-fluorophenyl)-((R)-1-((1s,4S)-4-(6-fluoroquinolin-4-yl)cyclohexyl)ethyl)-1,3,4-oxadiazole] |
| 0.135 | COc1ccc(Nc2nnc([C@H](C)[C@H]3CC[C@@H](c4ccnc5ccc(F)cc54)CC3)[nH]2)cc1 [Example 20, 5-((R)-1-((1s,4s)-4-(6-Fluoroquinolin-4-yl)cyclohexyl)ethyl)-N-(4-methoxyphenyl)-4H-1,2,4-triazol-3-amine] |
| 0.0682 | C[C@@H](c1nnc(Nc2ccc(F)cc2)[nH]1)[C@H]1CC[C@@H](c2ccnc3ccc(F)cc32)CC1 [Example 21, N-(4-Fluorophenyl)-5-((R)-1-((1s,4s)-4-(6-fluoroquinolin-4-yl)cyclohexyl)ethyl)-4H-1,2,4-triazol-3-amine] |
| 0.0453 | C[C@@H](Nc1nnc(-c2ccc(Cl)cc2)o1)[C@H]1CC[C@@H](c2ccnc3ccc(F)cc32)CC1 [Example 23, 5-(4-Chlorophenyl)-N—((R)-1-((1s,4S)-4-(6-fluoroquinolin-4-yl)cyclohexyl)ethyl)-1,3,4-oxadiazol-2-amine] |
| 0.0096 | COc1ccc(-c2nnc(N[C@H](C)[C@H]3CC[C@@H](c4ccnc5ccc(F)cc54)CC3)o2)cc1 [Example 25, N—((R)-1-((1s,4S)-4-(6-Fluoroquinolin-4-yl)cyclohexyl)ethyl)-5-(4-methoxyphenyl)-1,3,4-oxadiazol-2-amine] |
| 0.0619 | COc1ccc(-c2nnc(N[C@H](C)[C@H]3CC[C@@H](c4ccnc5ccc(F)cc54)CC3)s2)cc1 [Example 26, N—((R)-1-((1s,4S)-4-(6-Fluoroquinolin-4-yl)cyclohexyl)ethyl)-5-(4-methoxyphenyl)-1,3,4-thiadiazol-2-amine] |
| 0.009 | C[C@@H](Nc1nnc(C2CCCCC2)o1)[C@H]1CC[C@@H](c2ccnc3ccc(F)cc32)CC1 [Example 27, 5-Cyclohexyl-N—((R)-1-((1s,4S)-4-(6-fluoroquinolin-4-yl)cyclohexyl)ethyl)-1,3,4-oxadiazol-2-amine] |
| 0.0371 | C[C@@H](Nc1nnc(C2CC2)o1)[C@H]1CC[C@@H](c2ccnc3ccc(F)cc32)CC1 [Example 28, 5-cyclopropyl-N-((R)-1-((1s,4S)-4-(6-fluoroquinolin-4-yl)cyclohexyl)ethyl)-1,3,4-oxadiazol-2-amine] |
| 0.0427 | C[C@@H](Nc1nnc(-c2ccc(F)cc2)o1)[C@H]1CC[C@@H](c2ccnc3ccc(F)cc32)CC1 [Example 31, 5-(4-fluorophenyl)-N-((R)-1-((1s,4S)-4-(6-fluoroquinolin-4-yl)cyclohexyl)ethyl)-1,3,4-oxadiazol-2-amine] |
| 0.0035 | Cc1csc(-c2nnc(N[C@H](C)[C@H]3CC[C@@H](c4ccnc5ccc(F)cc54)CC3)o2)n1 [Example 32, N-((R)-1-((1s,4S)-4-(6-fluoroquinolin-4-yl)cyclohexyl)ethyl)-5-(4-methylthiazol-2-yl)-1,3,4-oxadiazol-2-amine] |
| 0.0641 | COc1ccc(-c2nnc(N[C@H](C)[C@H]3CC[C@@H](c4ccnc5ccc(F)cc54)CC3)o2)cn1 [Example 33, N-((R)-1-((1s,4S)-4-(6-fluoroquinolin-4-yl)cyclohexyl)ethyl)-5-(6-methoxypyridin-3-yl)-1,3,4-oxadiazol-2-amine] |
| 0.0386 | COCc1nnc(N[C@H](C)[C@H]2CC[C@@H](c3ccnc4ccc(F)cc43)CC2)o1 [Example 34, N-((R)-1-((1s,4S)-4-(6-fluoroquinolin-4-yl)cyclohexyl)ethyl)-5-(methoxymethyl)-1,3,4-oxadiazol-2-amine] |
| 1 | C[C@@H](Nc1nnc(-c2ccc(-c3nccs3)cc2)o1)[C@H]1CC[C@@H](c2ccnc3ccc(F)cc32)CC1 [Example 35, N-((R)-1-((1s,4S)-4-(6-fluoroquinolin-4-yl)cyclohexyl)ethyl)-5-(4-(thiazol-2-yl)phenyl)-1,3,4-oxadiazol-2-amine] |
| 0.729 | COc1ccc(-c2csc(N[C@H](C)[C@H]3CC[C@@H](c4ccnc5ccc(F)cc54)CC3)n2)cc1 [Example 36, N—((R)-1-((1s,4S)-4-(6-Fluoroquinolin-4-yl)cyclohexyl)ethyl)-4-(4-methoxyphenyl)thiazol-2-amine] |
| 0.858 | C[C@@H](Nc1nc(-c2ccc(Cl)cc2)cs1)[C@H]1CC[C@@H](c2ccnc3ccc(F)cc32)CC1 [Example 37, 4-(4-Chlorophenyl)-N—((R)-1-((1s,4S)-4-(6-fluoroquinolin-4-yl)cyclohexyl)ethyl)thiazol-2-amine] |
